Laboratory results taken from patent US20050070602A1, “Method of modulating immune response by administration of immuno-activation agent” (priority 2003, published 2005).
Where “and” joins values, the source holds several entries; their conditions need not be identical. Equal values may be shown once.

How the values were obtained:
[1] = tested on: human prostate cancer PC-3 cells; assay: Xenograft tumor assay, PC-3 cells in BALB/c (nu/nu) mice; assay type: in vivo
From the text: (§1) Five week-old BALB/c (nu/nu) male mice purchased from Charles River Laboratories (Wilmington, Mass.) were housed in a barrier facility with 12-h light/dark cycles; tap water and diets provided ad libitum. They were randomly divided into two groups of nine mice. […] The diets began one week prior to inoculation of PC-3 cells and continued until termination of experiments. The xenografted tumors were established by a single s.c. injection in the flank of 0.8×10^6 PC-3 cells suspended in ice-cold matrigel (sigma). The tumor volumes were measured every 7-8 days and calculated by length×width×height×0.5236. Animal body weights were recorded weekly and at autopsy; food consumption was determined twice per week. Two hours before the mice were euthanized, 5-bromo-2′-deoxyuridine (BrdU) (10 mg/kg body weight) was injected in the peritoneum for in vivo labeling of proliferating cells. At autopsy, xenograft tumors were weighed and frozen in liquid nitrogen or fixed in 10% formalin and embedded in paraffin. The BrdU-labeled cells of paraffin embedded tissues on slides were detected employing a monoclonal anti-BrdU antibody from a BrdU detection kit (Roche Molecular Biochemicals) according to manufacturer's direction. The mean numbers of labeled cells from multiple fields were calculated. The comparisons between control and experimental groups were performed with Student's t test.

prostate cancer cells = conditions: earlier report (ref. 12); cited from earlier work
cyclin D1 = assay: Western blot of xenografted tumors: cyclin D1; assay type: in vivo, human; conditions: pooled experimental tumors vs controls
Description: (§2) The protein levels of xenografts were determined by Western blot analyses using standard procedures (19). Total proteins were prepared from each group of pooled individual xenografts of equal weight. The tissues were homogenized in the presence of a lysis buffer with protease inhibitors (17) and lysates collected after centrifugation at 4° C. Polyclonal antibodies against human p21^WAF-1/Cip-1, p27^Kip1, cyclin E, and an anti-cyclin D1 cross reactive with cyclins D2 and D3, an anti-Rb reactive with both phosphorylated and non-phosphorylated proteins, and an antibody against intact poly (ADP-ribose) polymerase (PARP) and the 89 kDa fragment were purchased from Santa Cruz Biotechnology. Preferably the endogenous cyclin-dependent kinase inhibitors are p151NK4B, p161NK4A, p181NK4C, p191NK4D, p21WAF-1/Cip-1, p27Kip1 and/or p57 that inhibit cyclin-dependent kinases.

PC-3 cells = assay: Cell cycle phases of cultured PC-3 cells by flow cytometry; assay type: cell-based, human; conditions: exposure for 24 hours in cultures
Description: The product was crystallized from hexane, and purity established by HPLC, NMR and MS; purity was greater than 98%. A human prostate cancer cell line, androgen-independent PC-3 was used as antigen in this invention. PC-3 cells were seeded at 1.5×10^5 cells/ml in RPMI-1640 containing 15% heat inactivated fetal calf serum with 1% penicillin (10,000 units/ml) and streptomycin (10,000 μg/ml) (15). Cell cycle phase determination was performed using a BD FACScan cytometer according to published procedures (16, 17). The cells were fixed with 80% ethanol at 4° C. and incubated on ice before the DNA was stained with propidium iodide (50 μg/ml).

[2] = tested on: B cells and NK cells in the peripheral blood; assay: B and NK cells in peripheral blood by direct fluorescent antibody flow cytometry; assay type: in vivo, mice
From the text: as §1
Monoclonal antibodies against mouse B cell antigen CD19 or against Pan NK cell antigen CD49b were used. A mouse isotype control was used as a background.
The quantities of B cells and NK cells in the peripheral blood of all mice were determined by direct immunofluorescent antibody technique with the flow cytometric method. Monoclonal antibodies against mouse B cell antigen CD19 or against mouse Pan NK cell antigen CD49b were used.

PC-3 cell antigens = assay: Serum antibodies against cultured PC-3 cells, indirect immunofluorescence with flow cytometry; assay type: in vivo, mice
Description: The reaction of serum antibodies from mice on the experimental or control diet with cultured PC-3 cells was analyzed with an indirect immunofluorescent antibody technique. A fluoresecin-labeled goat IgG-(Fab′)2 antibody against mouse Ig was used as the second antibody. PC-3 cells stained with a nonspecific mouse IgG as the first antibody were used as a background. The proportion of the positively stained cells and the mean fluorescence intensity were analyzed with the intensity channel on a flow cytometer.
Mouse sera were incubated with cultured PC-3 cells to detect the presence and reactivity of antibodies against PC-3 antigens using an indirect immunofluorescent antibody technique. The proportion of the positively stained cells and the mean fluorescence intensity were analyzed by a flow cytometric method. […] For example, at the titer of 20, the antisera from mice on experimental diet detected approximately 24-38% cells while approximately 7-16% cells detected with the sera from mice on the control diet.

xenografted PC-3 tumors [3] = assay: Proliferating (BrdU-labeled) and mitotic cells in xenografted tumors; assay type: in vivo, mice
From the text: as §1

xenografted PC-3 tumors [4] = assay: Histology and immunohistochemical staining of xenografted tumor tissue for immune cells and bound mouse Ig; assay type: in vivo, mice
From the text: as §1
The changes of B and NK cells were further examined in the-frozen and paraffin embedded xenografted tumor tissues by for immunohistochemical staining. Mouse B cells were identified with a primary monoclonal rat anti-B220 antibody, and NK cells of immunodeficient mice detected with a rat anti-mouse CD90.2 (18) primary antibody (BD PharMingen). A biotin-conjugated goat anti-rat Ig was used as a secondary antibody, with chromogen color development using an ImmunoCruz Staining System (Santa Cruz Biotechnology). A rat IgG2aK was used as an isotype control. The binding of mouse Ig to xenografted tumor cells was determined by a direct antibody staining method using a biotinylated goat anti-mouse Ig (BD PhaMingen), or an isotype Ig control.

xenografted PC-3 tumors [5] = assay: Apoptotic cells in xenografted tumors by TUNEL; assay type: in vivo, mice; conditions: nine weeks PEITC-NAC diet
Description: The apoptotic cells of xenografted tumors were determined with paraffin embedded tissue slides by the characteristic nucleus morphology, and by the presence of DNA strand breaks using the terminal deoxynucleotidyl tranferase-mediated biotinylated UTP nick end labeling (TUNEL). An in situ detection kit from Roche Molecular Biochemicals, Indianapolis, Ind. was employed according to manufacturer's direction (17). Multiple fields, but not necrotic tissues, were determined for apoptotic cells.

[6] = tested on: PARP (poly (ADP-ribose) polymerase); assay: Western blot of PARP cleavage in xenografted tumors; assay type: in vivo, human; conditions: pooled experimental tumors vs control
Description: as §2

Rb = assay: Western blot of xenografted tumors: Rb phosphorylation; assay type: in vivo, human; conditions: experimental tumors vs controls
Description: as §2

[7] = From the text: as §1

For `CC(=O)N[C@@H](CSC(=S)NCCc1ccccc1)C(=O)O` [PEITC-NAC, N-acetylcysteine conjugate of phenethyl isothiocyanate], the tumor incidence ([1]; PEITC-NAC diet 8 μmol/g, control 100%) was 88%, the “time for tumors to be palpable” value ([1]; after inoculation of PC-3 cells, PEITC-NAC diet 8 μmol/g, control 7-10 days) was 7 to 22 days and the “tumor volumes vs control tumors” value ([1]; during study period, P<0.05) was “smaller”. The “mice with tumor inhibition” value ([1]; mice fed with PEITC-NAC diet) was 100%, the “growth of prostate cancer cells in cultures” value (prostate cancer cells) was “significantly inhibited” and the “reduced expression of cyclin D1” value (cyclin D1) was 32%. The “cell cycle phases of PC-3 cells” value (PC-3 cells) was “concentration-related reduction of S- and G2M-phases”, the “Mean of NK Cells (%), average of experimental mice” value ([2]; average of 3 experimental mice, control average 24.4, PEITC-NAC diet 8 μmol/g) was 30.5% and the “Mean of B Cells (%), average of experimental mice” value ([2]; average of 3 experimental mice, control average 30.5, PEITC-NAC diet 8 μmol/g) was 42.0%. For the same compound, the “Mean of B Cells (%)” value ([2]; individual experimental mice, peripheral blood, CD19, % of total mononuclear cells, PEITC-NAC diet 8 μmol/g of AIN-76A, 30 days, PC-3 xenografted nude mice) was 45.8% and 42.1% and 38.3%, the “Mean of NK Cells (%)” value ([2]; individual experimental mice, peripheral blood, CD49b, % of total mononuclear cells, PEITC-NAC diet 8 μmol/g of AIN-76A, 30 days, PC-3 xenografted nude mice) was 27.6% and 38.0% and 26.0% and the “antisera titer against PC-3 cell antigens” value (PC-3 cell antigens; 6 weeks after injection of PC-3 cells, vs basal control diet) was “higher titer”. The “mean fluorescence on stained PC-3 cells” value (PC-3 cell antigens; antisera from experimental diet mice vs control mice sera) was “significantly more intense”, the “PC-3 cells detected by antisera” value (PC-3 cell antigens; serum titer of 20, mice on experimental diet, control diet 7-16%) was 24-38% and the “proliferating cells, less than in control mice” value (xenografted PC-3 tumors [3]; BrdU labeling, tumors at autopsy) was “approximately 75%”. For the same compound, the mitotic figures (xenografted PC-3 tumors [3]; tumors from PEITC-NAC fed mice, control greater than five per field) was “three”, the “lymphocytes around tumor nodules” value (xenografted PC-3 tumors [4]; H & E sections, after nine weeks of PEITC-NAC diet, not in control mice) was “surrounded by aggregates of small lymphocytes” and the “NK cell receptor NKG2A/C/E among infiltrating cells” value (xenografted PC-3 tumors [4]; immunohistochemical staining, PEITC-NAC treated mice) was “demonstrated among cells infiltrating around the tumor nodules”. For the same compound, the “B220 staining of lymphocytes around tumor nodules” value (xenografted PC-3 tumors [4]; immunohistochemical staining, experimental tumors) was “great majority of them were B cells bearing marker B220”, the “CD90.2 staining of lymphocytes around tumor nodules” value (xenografted PC-3 tumors [4]; immunohistochemical staining, marker for T and NK cells) was “Small quantity of lymphocytes stained positive for CD90.2” and the “mouse immunoglobulins bound to xenografted tumor cells” value (xenografted PC-3 tumors [4]; immunoperoxidase staining, experimental but not control tumors) was “bound mouse immunoglobulins”. For the same compound, the “elevation of apoptotic rate vs control tumors” value (xenografted PC-3 tumors [5]) was “approximately two”, the “average apoptotic rate of tumors” value (xenografted PC-3 tumors [5]; control 14.4%, P=0.02) was 29.29% and the “cleaved PARP fragments incl. 89 kDa fragment” value [6] was “Significant increase of the cleaved fragments”. The Rb phosphorylation (Rb) was “significant reduction of Rb phosphorylation”, the “daily food consumption, less than control mice” value ([7]; PEITC-NAC diet) was “approximately 6.5%” and the “average weights of kidneys and spleens vs controls” value ([7]; at autopsy, P>0.13) was “the difference was not significant”. For the same compound, the “average body weight at termination” value ([7]; experimental mice, control mice 21.89 g) was 20.93 g and the behavior of animals ([7]; throughout the study period, PEITC-NAC diet) was “no signs of unusual behavior”.
